In patent US12053441B2, “Formulations for improving the delivery of hydrophobic agents” (THE ROYAL INSTITUTION FOR THE ADVANCEMENT OF LEARNING / …, priority 2018, dated 2024):
In brackets after ≈: the same amount, converted by molar mass.

Test system: UQ-deficient cells (Mclk1 KO or DKO cells)
Assay: Screening for compounds that increase survival or respiration of UQ-deficient cells
Type: cell-based, mouse
Conditions: not given
Text: Four different screening methods were developed. The screening methods 1 to 3 are based on rescue-of-lethality in glucose-free galactose-containing media. The presence of galactose instead of glucose forces the cells to rely on oxidative phosphorylation for energy production. Screening method 4 is based on rescue of respiration, implying that processes immediately dependent on UQ have been rescued. Libraries of small molecules were screened for compounds and/or agents that increase survival of UQ-deficient cells (e.g., Mclk1 KO or DKO cells) in standard or modified galactose media depending on the screen settings.
The screen uses cells lacking UQ (e.g., Mclk1 KO cells) and consists of three key steps: • 1) Day 0: preparation of Mclk1 KO cells in 96-well plates in standard (glucose-containing) culture medium. • 2) Day 1: changing to glucose-free galactose-containing medium and adding compounds to be screened at a concentration of approximately 10 μM. • 3) Day 4 to 6: following 3 to 5 days of incubation with the compound to be screened, media were removed and cell viability was assayed by resazurin reduction assay.
The screen also uses cells lacking UQ biosynthesis (e.g., DKO cells) and its protocol is essentially the same as the galactose-only screen except that in step 2, a minimal amount of UQ10 is added into the galactose screening media at a concentration at which the added UQ10 is insufficient by itself to support survival.
The screen uses Mclk1 SKO cells and its protocol is essentially the same as the galactose-only screen except that in step 2, the screening medium is added with 2,4-DHB at a concentration that allows the KO cells to restore some UQ biosynthetic ability but not sufficiently to allow for a level of UQ production that is sufficient for respiration-dependent growth. Thus, under these conditions a compound that can boost the overall level of UQ biosynthesis might allow the cells to make enough UQ to survive in a respiration-dependent medium. Such a screen can identify compounds that boost UQ biosynthesis at any level, including at the level of gene expression.
This screening approach aims to directly identify compounds that can boost mitochondrial respiratory chain activity in respiration-deficient cells. […] For this, cells were seeded into XF24 V7 culture plates and treated with testing compounds for 1 to 2 days before a treatment effect on cellular respiration is measured using the Seahorse XF-24e Flux Analyzer. The XF assay was the same as above described except galactose (10 mM) rather glucose was used as the sugar source to increase respiration rate and thus assay sensitivity.

| SMILES | identified by the screening methods as useful for UQ deficiency |
| --- | --- |
| CC1(C)O[C@@H]2C[C@H]3[C@@H]4CCC5=CC(=O)C=C[C@]5(C)[C@H]4[C@@H](O)C[C@]3(C)[C@]2(C(=O)CO)O1 [desonide] | identified |
| CC1(C)O[C@@H]2C[C@H]3[C@@H]4C[C@H](F)C5=CC(=O)C=C[C@]5(C)[C@@]4(F)[C@@H](O)C[C@]3(C)[C@]2(C(=O)CO)O1 [fluocinolone acetonide] | identified |

Test system: not given
Assay: not given
Conditions: cited from earlier work

| SMILES | solubility in water |
| --- | --- |
| CCCSc1ccc2nc(NC(=O)OC)[nH]c2c1 [albendazole] | insoluble |
| C=CCNC1=C2C[C@@H](C)C[C@H](OC)[C@H](O)[C@@H](C)/C=C(\C)[C@H](OC(N)=O)[C@@H](OC)/C=C\C=C(/C)C(=O)NC(=CC1=O)C2=O [17-AAG] | 0.1 mg/mL (≈ 171 µM) |
| CC(=O)O[C@@]12CO[C@@H]1C[C@H](O)[C@@]1(C)C(=O)[C@H](O)C3=C(C)[C@@H](OC(=O)[C@H](O)[C@@H](NC(=O)OC(C)(C)C)c4ccccc4)C[C@@](O)([C@@H](OC(=O)c4ccccc4)[C@H]21)C3(C)C [docetaxel] | 0.00493 mg/mL (≈ 6.1 µM) |
| COc1ccc2[nH]c([S+]([O-])Cc3ncc(C)c(OC)c3C)nc2c1 (stereo not drawn) [omeprazole] | 0.359 mg/mL (≈ 1040 µM) |
| O=C(O)c1ccccc1Nc1cccc(C(F)(F)F)c1 [flufenamic acid] | 0.00909 mg/mL (≈ 32.3 µM) |
| COc1cc([C@@H]2c3cc4c(cc3[C@@H](O[C@@H]3O[C@@H]5CO[C@@H](c6cccs6)O[C@H]5[C@H](O)[C@H]3O)[C@H]3COC(=O)[C@H]23)OCO4)cc(OC)c1O [teniposide] | 0.0598 mg/mL (≈ 91.1 µM) |
| COc1cc([C@@H]2c3cc4c(cc3[C@@H](O[C@@H]3O[C@@H]5CO[C@@H](C)O[C@H]5[C@H](O)[C@H]3O)[C@H]3COC(=O)[C@H]23)OCO4)cc(OC)c1O [etoposide] | 0.2 mg/mL (≈ 340 µM) |
| CCCC1O[C@@H]2C[C@H]3[C@@H]4CCC5=CC(=O)C=C[C@]5(C)[C@H]4[C@@H](O)C[C@]3(C)[C@]2(C(=O)CO)O1 (stereo partly drawn) [budesonide] | 10.7 mg/1 |
| Nc1nc2c(ncn2COCCO)c(=O)[nH]1 [acyclovir] | < 2.5 mg/mL |
| O=c1cc(-c2ccc(O)c(O)c2)oc2cc(O)cc(O)c12 [luteolin] | 0.00572 mg/mL (≈ 20 µM) |
| CC(C)(C)NC(=O)[C@H]1CC[C@H]2[C@@H]3CC[C@H]4NC(=O)C=C[C@]4(C)[C@H]3CC[C@]12C [finasteride] | 0.0117 mg/mL (≈ 31.4 µM) |
| CO[C@H]1C[C@@H]2CC[C@@H](C)[C@@](O)(O2)C(=O)C(=O)N2CCCC[C@H]2C(=O)O[C@H]([C@H](C)C[C@@H]2CC[C@@H](OC(=O)C(C)(CO)CO)[C@H](OC)C2)CC(=O)[C@H](C)/C=C(\C)[C@@H](O)[C@@H](OC)C(=O)[C@H](C)C[C@H](C)/C=C/C=C/C=C/1C [temsirolimus] | 0.02 mg/mL (≈ 19.4 µM) |
| O=C(O)COC(=O)Cc1ccccc1Nc1c(Cl)cccc1Cl [aceclofenac] | insoluble |
